pIC50: −log10 of the molar value.
System: 817829-284-R-J1-PDC complex spheroids, viability
Assay: Anticancer human tumor 817829-284-R-J1-PDC patient-derived colon adenocarcinoma cell line growth inhibition [CLK]
Settings: for pIC50: curve of first compound; for viability, T/C: stronger effect = lower value; active = viability on the fitted dose curve at most 10% of control; inactive = the rest
Summary of the method: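 Multi-cell-type spheroids combined patient-derived tumor cells with HUVEC endothelial cells and human mesenchymal stem cells. Paired agents were dosed in half-log steps down from about clinical Cmax, or from 10 microM where Cmax was unknown.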
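Note: spheroids exposed to the agents for seven days before readout.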

CC(C)CC(NC(=O)C(Cc1ccccc1)NC(=O)c1cnccn1)B(O)O (centres undefined) + CNC(=O)c1ccc(Nc2nc(OC3CCCC3)c3c(-c4ccc5nc(C)oc5c4)c[nH]c3n2)c(OC)c1
> 9.02: pIC50 (second compound 0.0316 µM) | pIC50 (second compound 0.1 µM) | pIC50 (second compound 0.316 µM) | pIC50 (second compound 1 µM) | pIC50 (second compound 3.16 µM) | pIC50 (second compound 10 µM)
active: viability, T/C (second compound 0.0316 µM, first compound 0.003 µM) 0.67% | viability, T/C (second compound 0.0316 µM, first compound 0.00949 µM) 0.14% | viability, T/C (second compound 0.0316 µM, first compound 0.03 µM) 0.16% | viability, T/C (second compound 0.0316 µM, first compound 0.0949 µM) 0.14% | viability, T/C (second compound 0.0316 µM, first compound 0.3 µM) 0.09% | viability, T/C (second compound 0.1 µM, first compound 0.003 µM) 0.93% | viability, T/C (second compound 0.1 µM, first compound 0.00949 µM) 0.22% | viability, T/C (second compound 0.1 µM, first compound 0.03 µM) 0.17% | viability, T/C (second compound 0.1 µM, first compound 0.0949 µM) 0.11% | viability, T/C (second compound 0.1 µM, first compound 0.3 µM) 0.1% | viability, T/C (second compound 0.316 µM, first compound 0.003 µM) 0.45% | viability, T/C (second compound 0.316 µM, first compound 0.00949 µM) 0.13% | viability, T/C (second compound 0.316 µM, first compound 0.03 µM) 0.6% | viability, T/C (second compound 0.316 µM, first compound 0.0949 µM) 0.08% | viability, T/C (second compound 0.316 µM, first compound 0.3 µM) 0.13% | viability, T/C (second compound 1 µM, first compound 0.003 µM) 0.18% | viability, T/C (second compound 1 µM, first compound 0.00949 µM) 0.14% | viability, T/C (second compound 1 µM, first compound 0.03 µM) 0.09% | viability, T/C (second compound 1 µM, first compound 0.0949 µM) 0.13% | viability, T/C (second compound 1 µM, first compound 0.3 µM) 0.16% | viability, T/C (second compound 3.16 µM, first compound 0.003 µM) 0.39% | viability, T/C (second compound 3.16 µM, first compound 0.00949 µM) 0.14% | viability, T/C (second compound 3.16 µM, first compound 0.03 µM) 0.1% | viability, T/C (second compound 3.16 µM, first compound 0.0949 µM) 0.22% | viability, T/C (second compound 3.16 µM, first compound 0.3 µM) 0.09% | viability, T/C (second compound 10 µM, first compound 0.003 µM) 0.15% | viability, T/C (second compound 10 µM, first compound 0.00949 µM) 0.16% | viability, T/C (second compound 10 µM, first compound 0.03 µM) 0.14% | viability, T/C (second compound 10 µM, first compound 0.0949 µM) 0.23% | viability, T/C (second compound 10 µM, first compound 0.3 µM) 0.11%
inactive: viability, T/C (second compound 0.0316 µM, first compound 0.000949 µM) 31.9% | viability, T/C (second compound 0.1 µM, first compound 0.000949 µM) 25% | viability, T/C (second compound 0.316 µM, first compound 0.000949 µM) 23% | viability, T/C (second compound 1 µM, first compound 0.000949 µM) 14.7% | viability, T/C (second compound 3.16 µM, first compound 0.000949 µM) 12.5% | viability, T/C (second compound 10 µM, first compound 0.000949 µM) 11.3%

O=C(c1cc(Cc2n[nH]c(=O)c3ccccc23)ccc1F)N1CCN(C(=O)C2CC2)CC1 + CNC(=O)c1ccc(Nc2nc(OC3CCCC3)c3c(-c4ccc5nc(C)oc5c4)c[nH]c3n2)c(OC)c1
inactive: viability, T/C (second compound 0.0316 µM, first compound 0.0316 µM) 30.4% | viability, T/C (second compound 0.0316 µM, first compound 0.1 µM) 42.9% | viability, T/C (second compound 0.0316 µM, first compound 0.316 µM) 38% | viability, T/C (second compound 0.0316 µM, first compound 1 µM) 26.7% | viability, T/C (second compound 0.0316 µM, first compound 3.16 µM) 31.5% | viability, T/C (second compound 0.0316 µM, first compound 10 µM) 22.4% | viability, T/C (second compound 0.1 µM, first compound 0.0316 µM) 24.2% | viability, T/C (second compound 0.1 µM, first compound 0.1 µM) 19.2% | viability, T/C (second compound 0.1 µM, first compound 0.316 µM) 30.9% | viability, T/C (second compound 0.1 µM, first compound 1 µM) 22.9% | viability, T/C (second compound 0.1 µM, first compound 3.16 µM) 24.2% | viability, T/C (second compound 0.1 µM, first compound 10 µM) 24.6% | viability, T/C (second compound 0.316 µM, first compound 0.0316 µM) 26.9% | viability, T/C (second compound 0.316 µM, first compound 0.1 µM) 22% | viability, T/C (second compound 0.316 µM, first compound 0.316 µM) 27.7% | viability, T/C (second compound 0.316 µM, first compound 1 µM) 31.5% | viability, T/C (second compound 0.316 µM, first compound 3.16 µM) 25% | viability, T/C (second compound 0.316 µM, first compound 10 µM) 17.2% | viability, T/C (second compound 1 µM, first compound 0.0316 µM) 22.3% | viability, T/C (second compound 1 µM, first compound 0.1 µM) 20.1% | viability, T/C (second compound 1 µM, first compound 0.316 µM) 20% | viability, T/C (second compound 1 µM, first compound 1 µM) 17.8% | viability, T/C (second compound 1 µM, first compound 3.16 µM) 16.9% | viability, T/C (second compound 1 µM, first compound 10 µM) 14.7% | viability, T/C (second compound 3.16 µM, first compound 0.0316 µM) 21.9% | viability, T/C (second compound 3.16 µM, first compound 0.1 µM) 20.9% | viability, T/C (second compound 3.16 µM, first compound 0.316 µM) 19.4% | viability, T/C (second compound 3.16 µM, first compound 1 µM) 25.5% | viability, T/C (second compound 3.16 µM, first compound 3.16 µM) 18.5% | viability, T/C (second compound 3.16 µM, first compound 10 µM) 22% | viability, T/C (second compound 10 µM, first compound 0.0316 µM) 21.9% | viability, T/C (second compound 10 µM, first compound 0.1 µM) 22.9% | viability, T/C (second compound 10 µM, first compound 0.316 µM) 30.8% | viability, T/C (second compound 10 µM, first compound 1 µM) 18.1% | viability, T/C (second compound 10 µM, first compound 3.16 µM) 15.8% | viability, T/C (second compound 10 µM, first compound 10 µM) 15.3%
> 7.50: pIC50 (second compound 0.0316 µM) | pIC50 (second compound 0.1 µM) | pIC50 (second compound 0.316 µM) | pIC50 (second compound 1 µM) | pIC50 (second compound 3.16 µM) | pIC50 (second compound 10 µM)

— PubChem BioAssay AID2060599 (Molecular Pharmacology Branch, DTP, NCI, 2025)
